In patent publication US20260101893A1, “FUNGICIDAL COMPOSITIONS” (SYNGENTA CROP PROTECTION AG, priority 2022, published 2026):

How the values were obtained:
Assay type in all cases: cell-based
[1] = system: Mycosphaerella arachidis Syn. Cercospora arachidicola; assay: Fungicidal activity against Mycosphaerella arachidis syn. Cercospora arachidicola (brown leaf spot), liquid culture in PDB, 96-well microtiter plate
Procedure: (§1) Fungicidal Activity Against Mycosphaerella arachidis Syn. Cercospora arachidicola (Brown Leaf Spot) Conidia of the fungus from cryogenic storage were directly mixed into nutrient broth (PDB potato dextrose broth). A DMSO solution of the test compounds was placed into a microtiter plate (96-well format) and the nutrient broth containing the fungal spores was added to it. The test plates were incubated at 24° C. and after 5 days the fungal growth was assessed visually and compared to the growth in untreated wells. The scores were recorded as % control compared to the untreated wells. The action to be expected E for a given active ingredient combination was calculated using the COLBY formula as follows: • ppm=milligrams of active ingredient (=a.i.) per liter of spray mixture • X=% action by active ingredient (A) using p ppm of active ingredient • Y=% action by active ingredients (B+C) using q ppm of active ingredient. According to COLBY, the expected (additive) action of active ingredients (A)+(B+C) using p+q ppm of active ingredient is: [formula]

[2] = system: Zymoseptoria tritici (Septoria tritici); assay: Fungicidal activity against Zymoseptoria tritici (Septoria tritici) (leaf blotch), liquid culture in PDB, 96-well microtiter plate
Procedure: as §1, with “activity against Zymoseptoria tritici (Septoria tritici) (leaf blotch)” for “Activity Against Mycosphaerella arachidis Syn. Cercospora arachidicola (Brown Leaf Spot)”, “72 hours” for “5 days”

[3] = system: Glomerella lagenarium (Colletotrichum lagenarium); assay: Fungicidal activity against Glomerella lagenarium (Colletotrichum lagenarium) liquid culture/cucumber/preventative (Anthracnose)
Procedure: as §1, with “activity against Glomerella lagenarium (Colletotrichum lagenarium) liquid culture/cucumber/preventative (Anthracnose)” for “Activity Against Mycosphaerella arachidis Syn. Cercospora arachidicola (Brown Leaf Spot)”, “72 hours” for “5 days”

## CO/C=C(\Oc1cc(C2CCCCC2)ccc1C)C(=O)OC [Compound X.04, methyl (Z)-2-(5-cyclohexyl-2-methyl-phenoxy)-3-methoxy-prop-2-enoate]
[1]; X.04 0.02 ppm
  % control Score: 70%
[1]; X.04 0.02 ppm alone
  % control Score: 70%
[1]; X.04 0.02 ppm, Table B2
  % control Score: 70%
[1]; X.04 0.07 ppm
  % control Score: 70%
[1]; X.04 0.07 ppm alone
  % control Score: 90%
[1]; X.04 0.07 ppm, Table B2
  % control Score: 90%
[1]; X.04 0.2 ppm
  % control Score: 70%
[1]; X.04 0.2 ppm alone
  % control Score: 90%
[1]; X.04 0.2 ppm, Table B2
  % control Score: 90%
[1]; ppm: X.04 0.02
  Mycosphaerella arachidis % control Score: 70%
[1]; ppm: X.04 0.07
  Mycosphaerella arachidis % control Score: 90%
[1]; ppm: X.04 0.2
  Mycosphaerella arachidis % control Score: 90%
[2]; X.04 0.02 ppm
  % control Score: 0%
[2]; X.04 0.02 ppm alone
  % control Score: 0%
[2]; X.04 0.02 ppm, Table B2
  % control Score: 0%
[2]; X.04 0.07 ppm
  % control Score: 0%
[2]; X.04 0.07 ppm alone
  % control Score: 0%
[2]; X.04 0.07 ppm, Table B2
  % control Score: 0%
[2]; X.04 0.2 ppm
  % control Score: 0%
[2]; X.04 0.2 ppm alone
  % control Score: 0%
[2]; X.04 0.2 ppm, Table B2
  % control Score: 0%
[2]; ppm: X.04 0.02
  Zymoseptoria tritici % control Score: 0%
[2]; ppm: X.04 0.07
  Zymoseptoria tritici % control Score: 0%
[2]; ppm: X.04 0.2
  Zymoseptoria tritici % control Score: 0%
[3]; X.04 0.02 ppm
  % control Score: 0%
[3]; X.04 0.02 ppm alone
  % control Score: 0%
[3]; X.04 0.02 ppm, Table B2
  % control Score: 0%
[3]; X.04 0.07 ppm
  % control Score: 70%
[3]; X.04 0.07 ppm alone
  % control Score: 70%
[3]; X.04 0.07 ppm, Table B2
  % control Score: 70%
[3]; X.04 0.2 ppm
  % control Score: 100%
[3]; X.04 0.2 ppm alone
  % control Score: 100%
[3]; X.04 0.2 ppm, Table B2
  % control Score: 100%
[3]; ppm: X.04 0.02
  Colletotrichum lagenarium % control Score: 0%
[3]; ppm: X.04 0.07
  Colletotrichum lagenarium % control Score: 70%
[3]; ppm: X.04 0.2
  Colletotrichum lagenarium % control Score: 100%
